This is an account of results in patent US5093327A, “Inhibition of HIV and other retroviruses by polyoxoanions” (Du Pont Merck Pharmaceutical Company, priority 1991, dated 1992).

The ED50 is the midpoint of the dose-response relation. As a reminder, the IC50 is the concentration that gives 50% inhibition.

In brackets after ≈: the same amount, converted by molar mass.

In test [1] the test system is Friend leukemia virus (FLV). As to the kind of experiment: Splenomegaly assay for quantitation of Friend leukemia virus (FLV) in vivo. Further details: species or system Female Balb/c mice. To be noted: for FLV In Vivo ED50: 50% inhibition of virus-induced splenomegaly, once a day through 7 days post-infection, 30240 min.
The test system of test [2] is Friend leukemia virus (FLV). As to the kind of experiment: XC plaque assay for quantitation of Friend leukemia virus (FLV) in vitro. Particulars: for FLV In Vitro IC50: XC plaque formation. Format: cell-based.
A further test relates to HIV-IIIB in ATH8 cells. As to the kind of experiment: HIV Infectivity Assay in ATH8 Cells (50% protection from virus-induced cytopathogenesis). It counts as cell-based. To be noted: for HIV Infectivity ATH8 IC50: ATH8 cells, HIV-IIIB, 10 days.
Test [3] relates to HIV-IIIB in H9 cells (reverse transcriptase). As to the kind of experiment: HIV Infectivity Assay in H9 Cells (HIV reverse transcriptase production). It counts as cell-based. To be noted: day 10.
Test [4] deals with FLV. As to the kind of experiment: Alternate dosing regimen with combination therapy with AZT against FLV-induced splenomegaly. It counts as in vivo, mice.
Test [5] has as its system FLV. As to the kind of experiment: Combination therapy with AZT against FLV-induced splenomegaly. Format: in vivo, mice. Here is the method: (§1) Female Balb/c mice are infected intraperitoneally with 0.2 ml of FLV suspension at a concentration predetermined to induce spleen weights of 1-2 grams in vehicle-treated control mice at 21 days post-infection. Beginning 24 hours post-infection, mice (10/group) are treated with 10-100 mg/kg of test compound in Sterile Normal Saline for injection (USP) as a carrier for either intraperitoneal, subcutaneous, intravenous or oral route administration. Treatment is given once a day, continuing through 7 days post-infection. AZT is used as a positive control compound. Uninfected, vehicle-treated mice serve as normal spleen controls, while virus-infected, vehicle-treated mice serve as infected spleen controls. At 21 days post-infection the mice are sacrificed and spleens are surgically excised and weighed. Results are expressed as Treated/Control (T/C), where control represents the means spleen weight of FLV-infected, vehicle-treated mice and is arbitrarily set to 1.0. The doses of test compounds required to inhibit virus-induced splenomegaly by 50% (ED50) are shown in Table 1 as compared to AZT the control compound.
Since AZT is currently approved for the clinical treatment of HIV/AIDS, a combination therapy of AZT and the compounds of the present invention for the treatment of retrovirus and, particularly HIV/AIDS, may be a favorable alternative treatment plan. In order to determine how effective the compounds would be if given together, the following study was done.
FLV-infected mice are treated with compound 1 (0.8-20 mg/kg), alone or in combination with AZT (8-200 mg/kg). Starting one day post-infection compounds are given once daily for seven days. Compound 1 is administered subcutaneously (sc) while AZT is administered intraperitoneally (ip) in order not to physically mix the compounds at the same site.

Test [6] concerns FLV. As to the kind of experiment: Compound 1/Poly-I:C combination therapy against FLV-induced splenomegaly. It counts as in vivo, mice. Particulars: for reduction of splenomegaly: individual dosing. Here is the method: as §1
FLV-infected mice are treated with compound 1 (1.25-20.00 mg/kg S.C. daily x 7d beginning one day post-infection alone or in combination with Poly-I:C (0.31-5.0 mg/kg ip daily x 7d beginning one day post-infection. Results are shown in Table 4.

Test [7] concerns Rauscher leukemia virus (RLV). As to the kind of experiment: Splenomegaly assay for quantitation of Rauscher leukemia virus (RLV) in vivo. More on the design: species or system Female BALB/c mice. To be noted: 50% inhibition of virus-induced splenomegaly, ip, once a day through 14 days post-infection; 30240 min. The source says:
Treatment is given once a day, continuing through 14 days post-infection. Ribavirin is used as a positive control compound. Uninfected, vehicle-treated mice serve as normal spleen controls, while infected, vehicle-treated mice serve as infected spleen controls. At 21 days post-infection the mice are sacrificed and spleens are surgically excised and weighed.

Another test concerns SIV. As to the kind of experiment: Activity against SIV. It counts as cell-based.
The next test deals with LPBM-5. As to the kind of experiment: Activity against LPBM-5 in vivo.

For K7 [Compound 6, K7 [PTi2 W10 O40]], the “FLV In Vivo ED50” value in test [1] is given as “IA (Inactive)”. The “FLV In Vitro IC50” value in test [2] worked out at 5 µg/mL. The “HIV Infectivity ATH8 IC50” value in the test with HIV-IIIB in ATH8 cells turned out to be 5.6 µg/mL.

For the compound β-Cs5 [Compound 4, β-Cs5 [PV2 W10 O40]], in test [1], the “FLV In Vivo ED50” value lay in the range of 10 to 20 mg/kg. Further, the “FLV In Vitro IC50” value in [2] worked out at 7 µg/mL. Also, in the test with HIV-IIIB in ATH8 cells, the “HIV Infectivity ATH8 IC50” value was determined as 1.6 µg/mL. Further, the “HIV Infectivity RT/H9 IC50” value in test [3] was below 10 µg/mL.

Take “K9 (NH4)H2 [Compound 8, K9 (NH4)H2 [(OCe)3 (PW9 O34)2]]”: the “FLV In Vivo ED50” value in test [1] lay within 10 to 20 mg/kg. Besides, the “FLV In Vitro IC50” value in [2] amounted to 10 µg/mL. Also, the “HIV Infectivity ATH8 IC50” value with HIV-IIIB in ATH8 cells is 1.0 µg/mL.

Consider `Cc1cn([C@H]2C[C@H](N=[N+]=[N-])[C@@H](CO)O2)c(=O)[nH]c1=O` [AZT, 3'-Azido-3'-deoxythymidine, reference compound], for which the ED50 in test [1] (Mus musculus, 504 h, read-out: FLV In Vivo ED50) amounted to 100 mg/kg. For the same compound, the “T/C (spleen weight)” value in the test on FLV [4] (AZT 12.5 mg/kg ip daily x 7 days, no Cpd 1 (Control)) is reported as 0.93; in the test with FLV [4] (AZT 50 mg/kg ip daily x 7 days, no Cpd 1 (Control)), 0.71; in the test with FLV [4] (AZT 200 mg/kg ip daily x 7 days, no Cpd 1 (Control)), 0.45; with FLV [5] (AZT 8 mg/kg ip, Cpd 1 0, days 1-7), 0.83; with FLV [5] (AZT 40 mg/kg ip, Cpd 1 0, days 1-7), 0.69; in the test on FLV [5] (AZT 200 mg/kg ip, Cpd 1 0, days 1-7) it was 0.46. Besides, the reduction in splenomegaly with FLV [4] (AZT alone) is reported as 30-50%. In the test with FLV [5] (AZT alone at 200 mg/kg), the “percent reduction in splenomegaly” value was “about 50%”. Besides, the IC50 in test [2] (read-out: FLV In Vitro IC50) was found to be 0.005 µg/mL (≈ 0.0187 µM); in the test with HIV-IIIB in ATH8 cells (Human immunodeficiency virus 1, IIIB, ATH-8, 240 h, read-out: HIV Infectivity ATH8 IC50), 0.005 µg/mL (≈ 0.0187 µM). Besides, in the test with HIV-IIIB in ATH8 cells (in vitro, data in Table 1), the “in vitro potency of AZT relative to the polyoxoanions” value is on record as “more potent in vitro than the polyoxoanions of the present invention”.

Take K7 [Compound 3, K7 [BV^IV W11 O40]]: the “FLV In Vivo ED50” value in test [1] came out at 7.5 mg/kg. Also, the “FLV In Vitro IC50” value in test [2] amounted to 0.1 µg/mL. The “HIV Infectivity ATH8 IC50” value with HIV-IIIB in ATH8 cells is 1.5 µg/mL. Also, the “HIV Infectivity RT/H9 IC50” value in test [3] is below 10 µg/mL.

Take “PolyInosinic-PolyCytidylic Acid [Poly-I:C, reference compound]”: the “T/C (spleen weight)” value in the test with FLV [6] (Poly-I:C 0.31 mg/kg ip daily x 7 d, Cpd 1 0) was 1.2; in the test with FLV [6] (Poly-I:C 1.25 mg/kg ip daily x 7 d, Cpd 1 0) it was 1.1; in the test with FLV [6] (Poly-I:C 5.0 mg/kg ip daily x 7 d, Cpd 1 0), 0.39. Besides, the reduction of splenomegaly in the test with FLV [6] (Poly-I:C 5 mg/kg) is reported as 60%.

Turning to K6 [Compound 1, K6 [BVW11 O40]], in [1], the “FLV In Vivo ED50” value fell in the range of 10 to 20 mg/kg. Besides, the “T/C (spleen weight)” value in the test with FLV [6] (Cpd 1 1.25 mg/kg S.C. daily x 7 days, Poly-I:C 0) turned out to be 0.8; in the test with FLV [6] (Cpd 1 5.0 mg/kg S.C. daily x 7 days, Poly-I:C 0), 0.58; with FLV [6] (Cpd 1 20.0 mg/kg S.C. daily x 7 days, Poly-I:C 0), 0.33; with FLV [4] (Cpd 1 80 mg/kg S.C. days 1 & 10, AZT 0), 0.21; in the test with FLV [4] (Cpd 1 80 mg/kg S.C. days 1 & 14, AZT 0) it was 0.17; with FLV [4] (Cpd 1 80 mg/kg S.C. days 1 & 17, AZT 0), 0.5. Also, the “T/C (spleen weight)” value with FLV [5] (Cpd 1 0.8 mg/kg sc, AZT 0, days 1-7) is 1.0; in the test with FLV [5] (Cpd 1 4.0 mg/kg sc, AZT 0, days 1-7), 0.94; with FLV [5] (Cpd 1 20.0 mg/kg sc, AZT 0, days 1-7), 0.52. Further, the reduction of splenomegaly with FLV [6] (compound 1 20 mg/kg) was determined as 60%. In addition, the “efficacy of two doses administered alone” value in the test with FLV [4] (two doses of compound 1 alone, 10-17 days apart) is recorded as “efficacious”. Moreover, the “RLV In Vivo ED50” value in test [7] lay within 10 to 20 mg/kg. In addition, the “percent reduction in splenomegaly” value in the test on FLV [5] (compound 1 alone at 20 mg/kg) is given as “about 50%”. The “FLV In Vitro IC50” value in test [2] was 1 µg/mL. The “IC50 against SIV” value with SIV is below 1 µg/mL. Further, the “HIV Infectivity ATH8 IC50” value in the test on HIV-IIIB in ATH8 cells turned out to be 1.0 µg/mL. Besides, the “ED50 against LPBM-5 in vivo” value in the test on LPBM-5 lay in the range of 10 to 20 mg/kg. Besides, the “HIV Infectivity RT/H9 IC50” value in [3] was below 10 µg/mL.

For the compound Na12 [Compound 7, Na12 [P2 W15 O62]], the “FLV In Vivo ED50” value in test [1] was above 20 mg/kg. In the test with HIV-IIIB in ATH8 cells, the “HIV Infectivity ATH8 IC50” value turned out to be 2.6 µg/mL.

Turning to K6 [Compound 5, K6 [SiTiW11 O40]], the “FLV In Vivo ED50” value in test [1] was found to be 20 mg/kg. In test [2], the “FLV In Vitro IC50” value was 3 µg/mL. Further, in the test with HIV-IIIB in ATH8 cells, the “HIV Infectivity ATH8 IC50” value worked out at 3.2 µg/mL.

In the case of “1,2-K5 [Compound 2, 1,2-K5 [PV2 W10 O40]]”, in [1], the “FLV In Vivo ED50” value lay within 10 to 20 mg/kg. The “RLV In Vivo ED50” value in test [7] is 15 to 20 mg/kg. Moreover, in [2], the “FLV In Vitro IC50” value was found to be 2.5 µg/mL. Besides, in the test with HIV-IIIB in ATH8 cells, the “HIV Infectivity ATH8 IC50” value is 1.0 µg/mL. In test [3], the “HIV Infectivity RT/H9 IC50” value is below 10 µg/mL.
